The values below come from patent publication US10377746B2, “Indolin-2-one derivatives” (Hoffmann-La Roche Inc., priority 2015, dated 2019).

Assay [1] addresses mouse ENT-1 transporter (Mus musculus (Mouse), UniProt Q9JIM1). In words: Determination of adenosine transport activity (ENT1, [3H]-adenosine uptake). Format: cell-based. To be noted: stable cells expressing mouse ENT-1; [2,8-3H]-adenosine 6 nM, 20 min. The method, then:
To measure adenosine transport activity of ENT-1 mammalian cells, stable cells expressing the mouse ENT-1 transporter were plated on day 1 in 96-well culture plates at the density of 60,000 cells/well, in complete DMEM/F12 medium supplemented with glutamax, 10% FBS and 10 μg/ml puromycin. On day 2, the medium was aspirated and the cells were washed twice with uptake buffer (10 mM Hepes-Tris, pH 7.4 containing 150 mM NaCl, 1 mM
CaCl2, 2.5 mM KCl, 2.5 mM MgSO4, 10 mM D-glucose) (UB). For inhibition experiments, cells were then incubated at RT with various concentrations of compounds with 1% DMSO final. Non-specific uptake was defined in the presence of 10 μM S-(4-Nitrobenzyl)-6-thioinosine (NBTI, Sigma Cat #N2255).
A solution containing [2,8-^3H]-adenosine 6 nM (40 Ci/mmol, American Radiolabeled chemicals Inc, Cat #ART 0287A) was then immediately added to the wells. The plates were then incubated for 20 min with gentle shaking and the reaction was stopped by aspiration of the mixture and washing (three times) with ice-cold UB. The cells were lysed by the addition of scintillation liquid, shaken 3 hours and the radioactivity in the cells was estimated using a microplates scintillation counter (TopCount NXT, Packard).

Assay [2] relates to L-687,414-induced hyperlocomotion. The experiment in a line: L-687,414-induced hyperlocomotion. The class given is in vivo, mouse. To be noted: mice; 30 mg/kg ip, 15 min before 50 mg/kg s.c. L-687,414. On the procedure: The described compounds of formula I reduce L-687,414-induced hyperlocomotion. This was assessed by using a computerized Digiscan 16 Animal Activity Monitoring System (Omnitech Electronics, Columbus, Ohio) to quantify locomotor activity. Animals were kept under a 12 h light/dark cycle and experiments were performed during the light period. Each activity monitoring chamber consisted of a Plexiglas box (41×41×28 cm; W×L×H) with sawdust bedding on the floor surrounded by invisible horizontal and vertical infrared sensor beams. The test boxes were divided by a Plexiglas cross providing each mouse with 20×20 cm of moving space. Cages were connected to a Digiscan Analyzer linked to a computer that constantly collected the beam status information. Records of photocell beam interruptions for individual animals were taken every 5 min over the duration of the experimental session and the sum of the first 6 periods was used as the final parameter. At least 8 mice were used in each treatment group. Compounds were administered i.p. 15 min before a s.c. injection of 50 mg/kg of L-687,414. Mice were then transferred from their home cage to the recording chambers for a 15-min habituation phase allowing free exploration of the new environment. Horizontal activity was then recorded for a 30-min time period. The % inhibition of L-687,414-induced hyperlocomotion was calculated according to the equation: ((Veh+L-687,414horizontal activity−drug+L-687,414horizontal activity)/Veh+L-687,414horizontal activity)×100
ID50 values, defined as doses of each compound producing 50% inhibition of L-687,414-induced hyperlocomotion, were calculated by linear regression analysis of a dose-response data using an Excel-based computer-fitting program.
As data was not presupposed to be normally distributed, groups treated with test compounds were statistically compared with the control (vehicle-treated) group using one-tailed Mann Whitney U tests. […]

For assay [3], the system named is behavioral signature of compound-treated mice. In words: SmartCube behavioral signature similarity analysis. Format: in vivo, mouse. To be noted: for SmartCube similarity to major classes of compounds: i.p., in words; for discrimination rate vs Clozapine (1.0 mg/kg) / discrimination rate vs Olanzapine (0.25 mg/kg) / discrimination rate vs Risperidone (0.06 mg/kg): rate <=0.70 = similar. The source says: In addition to the reversal of L-687,414 induced hyperlocomotion experiment as described above, some compounds of the present invention have been tested in SmartCube®, an automated system in which the behaviors of compound-treated mice in response to multiple challenges are captured by digital video and analyzed with computer algorithms (Roberds et al., Frontiers in Neuroscience, 2011, Vol. 5, Art. 103, 1-4; Vadim Alexandrov, Dani Brunner, Taleen Hanania, Emer Leahy Eur. J. Pharmacol. 2015, 750, 82-99). In this way, the neuro-pharmacological effects of a test compound can be predicted by similarity to major classes of compounds, such as antipsychotics, anxiolytics and antidepressants.
SmartCube® was used to compare the behavioral signature of a test compound to a database of behavioral signatures obtained from a large set of clinically approved reference drugs, grouped per indications. In this way, the neuro-pharmacological effects of a test compound can be predicted by similarity to major classes of compounds, such as antipsychotics, anxiolytics and antidepressants. This approach is ideally suited to screen collections of existing drugs or drug candidates with previously unknown neuropharmacology, which could expedite the development of new and unexpected treatments for psychiatric disorders.
Some compounds of the present invention were injected i.p. at different doses 15 minutes before the test. At least 8 mice were used in each treatment group. Digital videos of the subjects were processed with computer vision algorithms to extract over 2000 dependent measures including frequency and duration of many different behavioral states. The results of the classifications are presented as bar charts for each compound and dose (mg/kg), the Y-axis indicates the relative probability that the test compound will show efficacy in the specific CNS indication.
Compounds of the present invention show similar signatures to those of atypical antipsychotics. An independent analysis was performed on the unclassified data to determine the similarity of the example compounds to active doses of known atypical antipsychotics. For this analysis, we use discrimination rate as the measure of separability between the two drugs, i.e. one drug's “distinguishability” from another. A rate equal to 50% (or 0.5) corresponds to zero distinguishability. […] In most cases, the example compounds show a similarity to risperidone, clozapine and olanzapine with a discrimination rate of ≤0.70.

pIC50: −log10 of the molar value.

Sequence of mouse ENT-1 transporter (Q9JIM1 whole entry): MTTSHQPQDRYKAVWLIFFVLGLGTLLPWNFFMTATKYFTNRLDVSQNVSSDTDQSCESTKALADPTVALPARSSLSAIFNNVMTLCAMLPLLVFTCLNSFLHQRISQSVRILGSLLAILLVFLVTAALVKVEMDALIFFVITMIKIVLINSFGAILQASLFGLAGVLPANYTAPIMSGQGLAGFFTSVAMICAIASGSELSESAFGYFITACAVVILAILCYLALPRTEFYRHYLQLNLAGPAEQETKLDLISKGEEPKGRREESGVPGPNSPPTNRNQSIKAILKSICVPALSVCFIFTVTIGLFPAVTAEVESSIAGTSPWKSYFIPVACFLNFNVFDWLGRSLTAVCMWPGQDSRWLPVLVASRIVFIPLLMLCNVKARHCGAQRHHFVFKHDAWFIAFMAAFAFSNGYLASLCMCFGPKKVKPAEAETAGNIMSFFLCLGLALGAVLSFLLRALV

In general, pIC50 refers to the negative decadic logarithm of the IC50, by convention in mol/L. Lower therefore signals a large IC50. “3,3-Dimethyl-6-(2-methyl-1-oxidopyrimidin-1-ium-5-yl)-1-(6-methylsulfonylpyrazin-2-yl)indol-2-one [Example 15]” had a pIC50 in assay [1] of 6.66. Same read-out and setting: for `Cc1ncc(-c2ccc3c(c2)N(c2ccc4ccsc4c2)C(=O)C3(C)C)cn1` [Example 1, 1-(Benzo[b]thiophen-6-yl)-3,3-dimethyl-6-(2-methylpyrimidin-5-yl)indolin-2-one] the value was 6.72; for `Cc1ncc(-c2ccc3c(c2)N(c2cccc4sccc24)C(=O)C3(C)C)cn1` [Example 2, 1-(Benzo[b]thiophen-4-yl)-3,3-dimethyl-6-(2-methylpyrimidin-5-yl)indolin-2-one], 6.07. In turn, `Cc1ncc(-c2ccc3c(c2)N(c2cncc(S(C)(=O)=O)c2)C(=O)C3(C)C)cn1` [Example 3, 3,3-Dimethyl-6-(2-methylpyrimidin-5-yl)-1-(5-(methylsulfonyl)pyridin-3-yl)indolin-2-one] gave a pIC50 in assay [1] of 7.49. Also, the “Inhibition, ip of L-687,414-induced hyperlocomotion” value in assay [2] stood at 92.8%. Also, in assay [3], the “SmartCube similarity to major classes of compounds” value was “similarity to atypical antipsychotics”. In assay [3] (test compound 3 mg/kg i.p.), the “discrimination rate vs Clozapine (1.0 mg/kg)” value was 0.58, the “discrimination rate vs Olanzapine (0.25 mg/kg)” value is 0.60 and the “discrimination rate vs Risperidone (0.06 mg/kg)” value is on record as 0.67.

In turn, `Cc1ncc(-c2ccc3c(c2)N(c2cncc(S(C)(=O)=O)n2)C(=O)C3(C)C)cn1` [Example 4, 3,3-Dimethyl-6-(2-methylpyrimidin-5-yl)-1-(6-(methylsulfonyl)pyrazin-2-yl)indolin-2-one] gave a pIC50 in assay [1] of 7.40. In the case of `Cc1ncc(-c2ccc3c(c2)N(c2cccc(S(C)(=O)=O)c2)C(=O)C3(C)C)cn1` [Example 5, 3,3-Dimethyl-6-(2-methylpyrimidin-5-yl)-1-(3-(methylsulfonyl)phenyl)indolin-2-one], the pIC50 in assay [1] is 6.97. The “Inhibition, ip of L-687,414-induced hyperlocomotion” value in assay [2] stood at 96%. Moreover, in assay [3], the “SmartCube similarity to major classes of compounds” value is “similarity to atypical antipsychotics”. Besides, in assay [3] (test compound 5 mg/kg i.p.), the “discrimination rate vs Clozapine (1.0 mg/kg)” value came to 0.55, the “discrimination rate vs Olanzapine (0.25 mg/kg)” value came to 0.54 and the “discrimination rate vs Risperidone (0.06 mg/kg)” value was 0.52.

Molecule `Cc1ncc(-c2ccc3c(c2)N(c2cncc(S(=O)(=O)N(C)C)c2)C(=O)C3(C)C)cn1` [Example 6, 5-(3,3-Dimethyl-6-(2-methylpyrimidin-5-yl)-2-oxoindolin-1-yl)-N,N-dimethylpyridine-3-sulfonamide] gave a negative-log IC50 (pIC50) in assay [1] of 7.35.

With `Cc1ncc(-c2ccc3c(c2)N(c2cncc(S(=O)(=O)C(C)C)c2)C(=O)C3(C)C)cn1` [Example 7, 1-(5-(Isopropylsulfonyl)pyridin-3-yl)-3,3-dimethyl-6-(2-methylpyrimidin-5-yl)indolin-2-one], the pIC50 in assay [1] was 6.87. Against the preceding molecule, the pIC50 is 0.48 log units lower. With `Cc1ncc(-c2ccc3c(c2)N(c2cncc(S(=O)(=O)C4CC4)c2)C(=O)C3(C)C)cn1` [Example 8, 1-(5-(Cyclopropylsulfonyl)pyridin-3-yl)-3,3-dimethyl-6-(2-methylpyrimidin-5-yl)indolin-2-one], in assay [1], the pIC50 was 7.40. For `CSc1cncc(N2C(=O)C(C)(C)c3ccc(-c4cnc(C)nc4)cc32)c1` [Example 9, 3,3-Dimethyl-6-(2-methylpyrimidin-5-yl)-1-(5-(methylthio)pyridin-3-yl)indolin-2-one], in assay [1], the negative-log IC50 (pIC50) is 6.66. On the same count and under the same terms, the same measure for `Cc1ncc(-c2ccc3c(c2)N(c2cncc(S(N)(=O)=O)c2)C(=O)C3(C)C)cn1` [Example 10, 5-(3,3-Dimethyl-6-(2-methylpyrimidin-5-yl)-2-oxoindolin-1-yl)pyridine-3-sulfonamide]: 6.89; for `Cc1ncc(-c2ccc3c(c2)N(c2cncc(S(=O)(=O)N4CCC4)c2)C(=O)C3(C)C)cn1` [Example 11, 1-(5-(Azetidin-1-ylsulfonyl)pyridin-3-yl)-3,3-dimethyl-6-(2-methylpyrimidin-5-yl)indolin-2-one]: 6.77. Same read-out and setting: for `COCCN(C)S(=O)(=O)c1cncc(N2C(=O)C(C)(C)c3ccc(-c4cnc(C)nc4)cc32)c1` [Example 12, 5-(3,3-dimethyl-6-(2-methylpyrimidin-5-yl)-2-oxoindolin-1-yl)-N-(2-methoxyethyl)-N-methylpyridine-3-sulfonamide] the value was 7.10; for `CNS(=O)(=O)c1cncc(N2C(=O)C(C)(C)c3ccc(-c4cnc(C)nc4)cc32)c1` [Example 13, 5-(3,3-Dimethyl-6-(2-methylpyrimidin-5-yl)-2-oxoindolin-1-yl)-N-methylpyridine-3-sulfonamide], 7.14; for `Cc1ncc(-c2ccc3c(c2)N(c2cnc(C4CC4)c(S(C)(=O)=O)c2)C(=O)C3(C)C)cn1` [Example 14, 1-(6-Cyclopropyl-5-(methylsulfonyl)pyridin-3-yl)-3,3-dimethyl-6-(2-methylpyrimidin-5-yl)indolin-2-one], 7.41. In assay [1], `Cc1cncc(-c2ccc3c(c2)N(c2cncc(S(C)(=O)=O)c2)C(=O)C3(C)C)c1` [Example 16, 3,3-Dimethyl-6-(5-methylpyridin-3-yl)-1-(5-(methylsulfonyl)pyridin-3-yl)indolin-2-one] showed a negative logarithm of the IC50 (pIC50) of 6.51. For the molecule `Cc1ncc(-c2ccc3c(c2)N(c2cncc(S(C)(=O)=O)c2)C(=O)C3(C)C)cc1F` [Example 17, 6-(5-Fluoro-6-methylpyridin-3-yl)-3,3-dimethyl-1-(5-(methylsulfonyl)pyridin-3-yl)indolin-2-one], the negative-log IC50 (pIC50) in assay [1] was 7.57. The same measure, in the same setting: the same measure for `Cc1ncc(-c2ccc3c(c2)N(c2cnc(S(C)(=O)=O)cn2)C(=O)C3(C)C)cn1` [Example 18, 3,3-Dimethyl-6-(2-methylpyrimidin-5-yl)-1-(5-(methylsulfonyl)pyrazin-2-yl)indolin-2-one]: 7.57; for `Cc1ncc(-c2ccc3c(c2)N(c2cncc(S(C)(=O)=O)c2)C(=O)C32CCC2)cn1` [Example 20, 6′-(2-Methylpyrimidin-5-yl)-1′-(5-(methylsulfonyl)pyridin-3-yl)spiro[cyclobutane-1,3′-indolin]-2′-one]: 6.64.
